{
  "source": "patent US9551724B2",
  "about": "“5-fluoro-uracil immunoassay” (SALADAX BIOMEDICAL, INC., priority 2005, dated 2017)",
  "type_in_all_cases": "binding, BALB/c mice",
  "key": {"[1]": {"test_system": "polyclonal antibody to 1-Substituted 5-FU KLH Immunogen (example 5)", "test": "Indirect competitive microtiter plate immunoassay (ELISA), antibodies to 5-FU derivative 4 conjugate; plate coating 3-substituted BSA conjugate (10:1, example 7a)", "details": "relative to 5-FU (ratio of IC50 for 5-FU to IC50 of analyte), 1-Substituted KLH Immunogen, plate coating 3-Substituted BSA Conjugate (10:1 ratio)", "protocol": "(§1) Ten Female BALB/c mice were immunized i.p. with 100 μg/mouse of 5-FU-KLH prepared in example 5 or with 5-FU-BTG prepared in example 6a, emulsified in Complete Freund's Adjuvant. Mice were boosted once four weeks after the initial injection with 100 μg/mouse of the same immunogens emulsified in Incomplete Freund's Adjuvant. Ten days after the boost test bleeds from each mouse were obtained by orbital bleed. The anti-serum from these test bleeds contained 5-FU antibodies evaluated in Examples 12a, 13, and 14. For monoclonal antibodies ten Female BALB/c mice were immunized i.p. with 100 μg/mouse of 3-substituted 5-FU-KLH prepared in example 6b, emulsified in Complete Freund's Adjuvant. Mice were boosted once four weeks after the initial injection with 100 μg/mouse of the same immunogens emulsified in Incomplete Freund's Adjuvant. Ten days after the boost test bleeds from each mouse were obtained by orbital bleed and these were screened as in examples 12a and 15. To produce monoclonal antibodies starting four days before the fusion (day 0), the mice were injected i.p. with 400 μg (day 3), 200 μg (day 2) and 200 μg (day 1) 3-substituted 5-FU KLH immunogen in PBS on three successive days. Spleen cells were isolated from the selected mice and fused with 2×10^7 SP2/0 cells with 50% polyethylene glycol 1500 according to the method of Coligan, J. E. et al., eds., Current Protocols in Immunology, 2.5.1-2.5.8, (1992), Wiley & Sons, NY. The fused cells were plated on 10 96-well plates in DMEM/F12 supplemented with 20% FetalClone I, 2% L-glutamine (100 mM) and 2% 50×HAT. Two weeks later, the hybridoma supernatant was assayed for the presence of anti-5-FU by ELISA (example 12b). Positive wells were expanded and again screened by the same method. The positive clones were confirmed for 5-FU binding by a competitive ELISA (examples 12a and 15). Clones positive by ELISA were subcloned once or twice by limiting dilution according to the method disclosed in Coligan, J. E. et al., eds., Current Protocols in Immunology, 2.5.8-2.5.17, (1992), Wiley & Sons, NY.\n(§2) The ELISA method for measuring 5-FU concentrations was performed in polystyrene microtiter plates (Nunc MaxiSorp C8 or F8 Immunomodules) optimized for protein binding and containing 96 wells per plate. Each well was coated with 5-FU-BSA conjugate (prepared as in example 7a) by adding 300 μL of 5-FU-BSA conjugate at 10 μg/mL in 0.05M sodium bicarbonate, pH=9.6, and incubating for three hours at room temperature. The wells were washed with 0.05M sodium bicarbonate, pH9.6 and then were blocked with 400 μL of 5% sucrose, 0.2% sodium caseinate solution for 30 minutes at room temperature. After removal of the post-coat solution the plates were dried at 37° C. overnight.\n(§3) The ELISA method for screening 5-FU antibodies (produced in example 9) was performed with the microtiter plates that were sensitized with 5-FU-BSA as described in examples 7a, 7b and 8. The antibody screening assay was performed by diluting the antisera containing 5-FU antibodies to 1:100, 1:1,000, 1:10,000 and 1:100,000 in phosphate buffered saline containing 0.1% BSA and 0.01% thimerosal. To each well of 5-FU-BSA sensitized wells (prepared in examples 11a, 11b and 10) 100 μL of diluted antibody was added and incubated for 10 minutes at room temperature with shaking. During this incubation antibody binds to the 5-FU-conjugate in the well. The wells of the plates were washed three times with 0.02 M TRIS, 0.9% NaCl, 0.5% Tween-80 and 0.001% Thimerosal, pH 7.8 to remove any unbound antibody. To detect the amount of 5-FU antibody bound to the 5-FU-BSA conjugate in the wells, 100 μL of a goat anti-mouse antibody-HRP enzyme conjugate (Jackson Immunoresearch) diluted 1/2000 in PBS with 0.1% BSA, 0.05% ANS, 0.01% thimerosal, capable of binding specifically with murine immunoglobulins and producing a colored product when incubated with a substrate, were added to each well. […]"}, "[2]": {"test_system": "polyclonal antibody to 3-Substituted 5-FU BTG Immunogen (example 6a)", "test": "Indirect competitive microtiter plate immunoassay (ELISA), antibodies to 5-FU derivative 13 conjugate; plate coating 1-substituted BSA conjugate (20:1, example 8)", "details": "relative to 5-FU (ratio of IC50 for 5-FU to IC50 of analyte), 3-Substituted BTG Immunogen, plate coating 1-Substituted BSA Conjugate (20:1 ratio)", "protocol": "as §1\nas §2, with “8)” for “7a)”\nas §3"}, "[3]": {"test_system": "monoclonal antibody to 3-substituted 5-FU KLH immunogen (example 6b)", "test": "Indirect competitive microtiter plate immunoassay (ELISA), monoclonal antibody; plate coating 3-substituted BSA conjugate (1:1, example 7b)", "details": "relative to 5-FU (ratio of IC50 for 5-FU to IC50 of analyte), 3-Substituted KLH Immunogen, plate coating 3-Substituted BSA Conjugate (example 7b)", "protocol": "as §1\nas §2, with “7b)” for “7a)”, “375” for “400”\nas §3"}},
  "data": [
    {"smiles": "O=c1[nH]cc(F)c(=O)[nH]1", "note": "[5Fluorouracil, 5-fluoro-uracil]", "values": [
      {"measurement": "Cross-Reactivity", "setting": "[1]", "value": 100.0, "unit": "%"},
      {"measurement": "Cross-Reactivity", "setting": "[2]", "value": 100.0, "unit": "%"},
      {"measurement": "Cross-Reactivity", "setting": "[3]", "value": 100.0, "unit": "%"}
    ]},
    {"smiles": "Nc1cc[nH]c(=O)n1", "note": "[Cytosine, cytosine]", "values": [
      {"measurement": "Cross-Reactivity", "setting": "[1]", "value": "<0.1", "unit": "%"},
      {"measurement": "Cross-Reactivity", "setting": "[2]", "value": "<0.3", "unit": "%"},
      {"measurement": "Cross-Reactivity", "setting": "[2]; listed as cytosine", "value": "less than 0.03%"},
      {"measurement": "Cross-Reactivity", "setting": "[3]", "value": "<0.01", "unit": "%"},
      {"measurement": "Cross-Reactivity", "setting": "[3]; listed as cytosine", "value": "less than 0.01%"}
    ]},
    {"smiles": "O=c1[nH]c(=O)n(C2CCCO2)cc1F", "note": "(stereo not drawn) [Tegafur, tegafur]", "values": [
      {"measurement": "Cross-Reactivity", "setting": "[1]", "value": 200.0, "unit": "%"},
      {"measurement": "Cross-Reactivity", "setting": "[1]; listed as tegafur", "value": 200, "unit": "%"},
      {"measurement": "Cross-Reactivity", "setting": "[2]", "value": 0.5, "unit": "%"},
      {"measurement": "Cross-Reactivity", "setting": "[2]; listed as tegafur", "value": "less than 1%"},
      {"measurement": "Cross-Reactivity", "setting": "[3]", "value": 1.0, "unit": "%"},
      {"measurement": "Cross-Reactivity", "setting": "[3]; listed as tegafur", "value": "approximately 1%"}
    ]},
    {"smiles": "Cc1c[nH]c(=O)[nH]c1=O", "note": "[Thymine, thymine]", "values": [
      {"measurement": "Cross-Reactivity", "setting": "[1]", "value": 6.7, "unit": "%"},
      {"measurement": "Cross-Reactivity", "setting": "[2]", "value": 12.0, "unit": "%"},
      {"measurement": "Cross-Reactivity", "setting": "[2]; listed as thymine", "value": "about 12%"},
      {"measurement": "Cross-Reactivity", "setting": "[3]", "value": 3.2, "unit": "%"},
      {"measurement": "Cross-Reactivity", "setting": "[3]; listed as thymine", "value": "less than 4%"}
    ]},
    {"smiles": "O=c1cc[nH]c(=O)[nH]1", "note": "[Uracil, uracil]", "values": [
      {"measurement": "Cross-Reactivity", "setting": "[1]", "value": 4.0, "unit": "%"},
      {"measurement": "Cross-Reactivity", "setting": "[2]", "value": 7.5, "unit": "%"},
      {"measurement": "Cross-Reactivity", "setting": "[2]; listed as uracil", "value": "less than 8%"},
      {"measurement": "Cross-Reactivity", "setting": "[3]", "value": 7.3, "unit": "%"},
      {"measurement": "Cross-Reactivity", "setting": "[3]; listed as uracil", "value": "less than 8%"}
    ]}
  ]
}
